# Like-named read-outs stand apart in the source and are kept apart here.
# How the values were obtained:
# Kidney slices (rat) = experiment: Conversion of 14C-labelled DGLA and AA to PGEs in rat kidney slices; assay type: cell-based; settings: 5 μg/ml drug, percentage of control incubation with drug vehicle alone, 10% variation is a real change
# Experimental: The conversions of the precursors to the respective PGEs and TXBs in platelets and to the PGEs in kidney slices were investigated. The results are shown in the following tables and are expressed as percentages of the results obtained during control incubations when drug vehicle alone was added. A 10% variation is a reliable indication of real change.
# The detailed technique with platelets is given below by way of example. That with kidney slices was essentially similar.
# (1-^14C) arachidonic acid and (1-^14C) dihomo-y-linolenic acid was used, diluted with hexane to specific activities of about 2 or 5 µCi/µmol. One day expired (2 days old) human platelets were obtained and used within 48 hours of expiration. One unit was centrifuged at lOOOg for 15 minutes and the supernatant drawn off. The platelet pellet was resuspended in Tris-NaCl-EDTA buffer, made up of 0.15 M NaCl, 0.15 M Tris HC1 at pH 7.4 and 0.077 M NaEDTA (90:8:2 v/v/v). The platelets were recentrifuged, the supernatant removed and the pellet resuspended in Krebs-Henseleit buffer (without calcium) at oH 7.4. The washed platelet suspension contained about 1-2% red blood cells. All glassware used in the preparation of the platelets was siliconized.
# Four equal sized 1 ml aliquots of the platelet suspension, containing 10^9 platelets/ml were incubated with e.g. 0.5 µCi 14 C-DGLA for five minutes. At the beginning of the incubation the drug under test was added to the suspensions. The reaction was stopped after five minutes by addition of 1/10 volume of 10% formic acid. The suspension was then extracted three times with ethyl acetate and the fractions pooled and dried under vacuum. The extract was then taken up with 5 ml chloroform/methanol (2/1, v/v). Recovery of radioactive material in the extract was checked by taking 50pl of the chloroform/methanol and counting by liquid scintillation. Recovery was in the range 80-95% in most experiments.
# The chloroform/methanol extract was then reduced in volume to 1 ml under dry prepurified nitrogen. Thin layer chromatography was carried out on […] precoated, prescored silica gel G Uniplates (Analtech). Plates were activated by heating to 100°C for 1 hour immediately prior to use. The solvent system was chloroform:methanol: acetic acid:water (90:8:1:0.8). Reference compounds (PG's El and Fla, and thromboxane Bl) were run at the same time and visualized by phosphomolybdic acid spray followed by brief heating. The bands on the plates corresponding to the reference PGE 1,PFG la and TXB 1 were scraped off and eluted with 20 ml acetone. Each elution was then evaporated to dryness and counted by liquid scintillation (Beckman 100 LS counter). […]
# Platelets (human) = experiment: Conversion of 14C-labelled DGLA and AA to PGEs and TXBs in human platelets; assay type: cell-based; settings: Platelet, 5 μg/ml drug, percentage of control incubation with drug vehicle alone
# Experimental: The method is given in detail later herein but briefly human platelets are incubated with radioactive DGLA or arachidonic acid. The PGs produced during incubation are extracted by conventional means and separated by thin layer chromatography, and the amount of radioactivity appearing in each PG or related substance is counted. PGE 1, PGF la and thromboxane Bl from DGLA, and PGE 2, PFG 2a and thromboxane B2 from AA are estimated.
# The conversions of the precursors to the respective PGEs and TXBs in platelets and to the PGEs in kidney slices were investigated. […] A 10% variation is a reliable indication of real change.
# The chloroform/methanol extract was then reduced in volume to 1 ml under dry prepurified nitrogen. Thin layer chromatography was carried out on 500 µg precoated, prescored silica gel G Uniplates (Analtech). Plates were activated by heating to 100°C for 1 hour immediately prior to use. The solvent system was chloroform:methanol: acetic acid:water (90:8:1:0.8). Reference compounds (PG's El and Fla, and thromboxane Bl) were run at the same time and visualized by phosphomolybdic acid spray followed by brief heating. […] Each elution was then evaporated to dryness and counted by liquid scintillation (Beckman 100 LS counter). […]
# [1] = system: rat mesenteric vascular bed; settings: cited from earlier work; for inhibitory action on noradrenaline responses with intact PG synthesis versus PG synthesis blocked: PG synthesis blocked by indomethacin or by aspirin
# [2] = read-out: PGE 1 formed from precursor acid DGLA
# [3] = read-out: PGE 2 formed from precursor acid AA
Structure (SMILES),inhibitory action on noradrenaline responses with intact PG synthesis versus PG synthesis blocked [1],effect on responses to noradrenaline [1],other results
CCN(CC)CCCC(C)Nc1ccnc2cc(Cl)ccc12 (centres unmarked) [chloroquine],more potent when endogenous prostaglandin synthesis is intact,inhibits responses to noradrenaline,activity at 5 µg/mL (Kidney slices (rat); [2]): 129%; activity at 5 µg/mL (Kidney slices (rat); [3]): 101%; activity at 5 µg/mL (Platelets (human); [2]): 132%; activity at 5 µg/mL (Platelets (human); [3]): 98%; activity at 5 µg/mL (Platelets (human); read-out: TXB 1 formed from precursor acid DGLA): 128%; activity at 5 µg/mL (Platelets (human); read-out: TXB 2 formed from precursor acid AA): 97%
CCN(CC)CCOC(=O)c1ccc(N)cc1 [procaine],share this effect of chloroquine,–,–
"CCCCC/C=C\C/C=C\C/C=C\C/C=C\CCCC(=O)O [AA, arachidonic acid]",–,increase noradrenaline responses,–
C=C[C@H]1C[N@@]2CC[C@H]1C[C@@H]2[C@@H](O)c1ccnc2ccc(OC)cc12 [quinidine],share this effect of chloroquine,–,–
CCCCC[C@H](O)/C=C/[C@H]1[C@H](O)CC(=O)[C@@H]1CCCCCCC(=O)O [PGE 1],–,inhibit responses to noradrenaline,–
C=C[C@H]1C[N@@]2CC[C@H]1C[C@H]2[C@H](O)c1ccnc2ccc(OC)cc12 [quinine],share this effect of chloroquine,–,–
"CCCCC/C=C\C/C=C\C/C=C\CCCCCCC(=O)O [DGLA, dihomo-y-linolenic acid]",–,inhibit responses to noradrenaline,–
CCN(CC)CCCC(C)Nc1c2ccc(Cl)cc2nc2ccc(OC)cc12 (centres unmarked) [quinacrine],share this effect of chloroquine,–,–
CC(=O)S[C@@H]1CC2=CC(=O)CC[C@]2(C)[C@H]2CC[C@@]3(C)[C@@H](CC[C@@]34CCC(=O)O4)[C@H]12 [spironolactone],–,–,activity at 5 µg/mL (Kidney slices (rat); [2]): 143%; activity at 5 µg/mL (Kidney slices (rat); [3]): 67%

# Reference: patent publication EP0035856A2, “Pharmaceutical and dietary compositions” (EFAMOL LIMITED, priority 1980, dated 1981)
